Like-named read-outs stand apart in the source and are kept apart here.
How the values were obtained:
NL4-3 reference virus = test: Recombinant virus assay (RVA): susceptibility to reverse transcriptase inhibitors, single replication cycle, P4 indicator cells; format: cell-based, HIV-1
Experimental: (§1) The determination of the susceptibility of an HIV virus is performed as follows: 293 T cells are transfected with 7.5 μg of pSRT plasmid linearised with NruI, 0.1 μg of pVSV-G plasmid and 0.5 and 1 μg of product from the HIV reverse transcriptase PCR reaction. The transfection precipitate is removed from the cells after 18 hours of incubation and the fresh growth medium is added. After 24 hours of culture, the supernatant is clarified by centrifugation (500 g, 15 minutes) and transferred on P4 indicator cells which have been pre-incubated with serial dilutions of a reverse transcriptase inhibitor, in triplicate wells, for four hours. The range of inhibitor concentrations used varies according to the compounds. The signal produced by activating the marker gene was developed with CPRG for 48 hours, as for the analysis of the susceptibility to a reverse transcriptase inhibitor and the IC50 index was calculated using the median effect equation.
The pSRT plasmid comprising a deletion in the region coding for pol ranging from reverse transcriptase codon 24 (base 2618) to reverse transcriptase codon 432 (base 3872) includes all the mutations associated with a resistance phenomenon known to date. The homologous sequences of the PCR reverse transcriptase product ranging 88 base pairs upstream and 186 base pairs downstream from the deletion in pSRT. The transfections to determine the susceptibility to reverse transcriptase inhibitors are performed with a 293T cell line with a strong capacity to be transfected rather than with HeLa cells. This is not a problem since the cells are eliminated from the supernatant containing the virus by centrifugation before the transfer of P4 cells.
Given that the early phases of virus replication, including reverse transcription, take place in indicator P4 cells in this type of determination, these cells are treated with serial dilutions of reverse transcriptase inhibitors.
(§2) The inhibitor concentration ranges are selected as a function of the cellular toxicity of each compound and the IC50/IC90 ratio for the susceptibility of resistant isolates (Table 1). […] A range of four dilutions in series, starting at 200 μM, was used for abacavir, enabling the detection of up to 60 times more resistance.
For RVA reverse transcriptase, the IC50 index is used rather than the IC90 index since the detection of the IC90 index for resistant viruses could require toxic levels of compound for most reverse transcriptase inhibitors.

[1] = test system: recombinant virus, specimen R1 (69N/T, 70R); test: RVA susceptibility to RTI, recombinant virus from patient specimen R1; format: cell-based, HIV-1; conditions: specimen R1, genotype 69N/T, ratio of IC50 of specimen to NL43 in parallel
Experimental: as §1
(§3) The reproducibility of the method to determine the susceptibility of recombinant virus (RVA) to reverse transcriptase inhibitors (RTI) was evaluated with a series of tests on 5 specimens, selected so as to represent a wide range of susceptibility profiles, between 4 and 8 tests per specimen, using RNA preparations and separate PCR reactions.
(§4) (b) The Resistance Index is the ratio of the IC50 in the specimen with reference to that of NL43 determined in parallel.

[2] = test system: recombinant virus, specimen R5 (215Y, 41L, 74V, 100I, 103N); test: RVA susceptibility to RTI, recombinant virus from patient specimen R5; format: cell-based, HIV-1; conditions: for Resistance Index (geometric mean): specimen R5, genotype 215Y, 41L, 74V, 100I, 103N, IC50 ratio to NL43, '>' = IC50 above the detectable range in all tests; for susceptibility / level of resistance (in words): specimen R5
Experimental: as §1, §3, §4

[3] = test system: 22 viruses from specimens of patients with a standard treatment; test: RVA susceptibility to RTI, panel of 22 patient viruses compared with NL43; format: cell-based, HIV-1; conditions: for median RI (Resistance Index): median over 22 viruses, 3 RVA replicates, reference NL43
Experimental: as §1
To determine whether NL43 is a suitable reference virus for comparison with clinical isolates, a panel of specimens taken from patients with a standard treatment were tested on 3 RVA replicates for their susceptibility to reverse transcriptase inhibitors.

P4 cells = format: cell-based; conditions: cellular toxicity for P4 indicator cells
Experimental: as §2

[4] = test system: recombinant virus, specimen R2 (multi-compound resistance complex 62V, 75I, 77L, 116Y, 151M; 184V; 181C, 190A); test: RVA susceptibility to RTI, recombinant virus from patient specimen R2; format: cell-based, HIV-1; conditions: specimen R2, genotype 41L, 67N, 69N, 751, 77L, 115F, 208Y, 215F, 219Q, IC50 ratio to NL43, '>' = IC50 above the detectable range in all tests
Experimental: as §1, §3, §4

[5] = test system: recombinant virus, specimen R3 (184V, 215F); test: RVA susceptibility to RTI, recombinant virus from patient specimen R3; format: cell-based, HIV-1; conditions: specimen R3, genotype 184V, 21SF; IC50 ratio to NL43; '>' = IC50 above the detectable range in all tests
Experimental: as §1, §3, §4

[6] = test system: recombinant virus, specimen R4 (41L, 67N, 69D, 184V, 190A, H208Y, 210W, 215Y); test: RVA susceptibility to RTI, recombinant virus from patient specimen R4; format: cell-based, HIV-1; conditions: specimen R4, genotype 41L, IC50 ratio to NL43, '>' = IC50 above the detectable range in all tests
Experimental: as §1, §3, §4

resistant virus LAI-L91H = test: Susceptibility of recombinant HIV viruses to fusion inhibitors: LAI-L91H; format: cell-based, HIV-1; conditions: reference virus not given
Source text: (§5) The invention also relates to an analytical method to determine the susceptibility of an HIV virus to a fusion inhibiting compound targeting HIV-1 gp41 protein, consisting of performing the amplification in step b either with the pair of primers SEQ ID NO: 13, SEQ ID No: 14 followed by a second amplification with the pair of primers SEQ ID No: 15, SEQ ID No: 16, or with the pair of primers SEQ ID No: 17, SEQ ID No: 18 followed by a second amplification with the pair of primers SEQ ID No: 18, SEQ ID No: 16, adding said fusion inhibiting compound or not, possibly at different concentrations, during the culture of the cell host obtained in step e, before step f and comprising in step g the comparison of the expression of the marker gene with and without fusion inhibiting compound targeting HIV-1 gp41.
The recombinations obtained by performing the amplification of the step (b) with the pair of primers FuA: 5′[…]3′ (SEQ ID No: 23) et FuB: 5′ […]3′ (SEQ ID No: 24) followed by a second amplification step, performed with the primer FuC: 5′[…]3′ (SEQ ID No: 25) and a mixture of the following primers: FuD1: 5′[…]3′ (SEQ ID No: 26) FuD2: 5′[…]3′ (SEQ ID No: 27) are highly efficient. […]
The increase of the IC50index of the resistant virus LAI-L91H (Labrosse B. et al. J Virol. 2000 vol 74 pages 2142-2150) by reference to RPR103611 has been measured.

[7] = test system: highly resistant virus NL-DIM; test: Susceptibility of recombinant HIV viruses to fusion inhibitors: NL-DIM; format: cell-based, HIV-1
Source text: as §5, with “gp41. […]” for “gp41.”
(§6) The IC50 index for a highly resistant virus NL-DIM ( Rimski L. T. et al. J. Virol. 1998, vol 72, pages 986-993) and for the NL4.3 virus (which is partially resistant) has been measured by reference to the DP178 inhibitor.

[8] = test system: NL4.3 virus (partially resistant); test: Susceptibility of recombinant HIV viruses to fusion inhibitors: NL4.3; format: cell-based, HIV-1
Source text: as §5, with “gp41. […]” for “gp41.”
as §6

[9] = Human immunodeficiency virus 1, NL43, NL4-3 reference virus, P4 cells, geometric mean of 20 repeated tests, read-out: Geometric mean IC50
[10] = Human immunodeficiency virus 1, NL43, read-out: Geometric mean IC50

Compound | IC50 (NL4-3 reference virus; [9]) [nM] | Resistance Index (geometric mean) [1] | Resistance Index (geometric mean) [2] | susceptibility / level of resistance (in words) [2] | Resistance Index (geometric mean) [4] | Resistance Index (geometric mean) [5] | Resistance Index (geometric mean) [6] | also measured
Nc1ccn([C@@H]2CS[C@H](CO)O2)c(=O)n1 [3TC, lamivudine] | 1510 | 1.3 | 1.8 | – | – | – | – | median RI (Resistance Index) [3]: ~1.22
Cc1cn([C@H]2C[C@H](N=[N+]=[N-])[C@@H](CO)O2)c(=O)[nH]c1=O [AZT, zidovudine] | 18 | – | – | remains susceptible | – | – | – | –
Nc1nc(NC2CC2)c2ncn([C@H]3C=C[C@@H](CO)C3)c2n1 [Abacavir, abacavir] | 2230 | 1.1 | 1.7 | – | > | 4.3 | 4.3 | IC50 index / toxicity for P4 cells (P4 cells): approximately 250 μM
Cc1cn([C@H]2C=C[C@@H](CO)O2)c(=O)[nH]c1=O [D4T, stavudine] | – | 1.4 | 1.7 | – | 43.5 | 3.2 | 3.6 | IC50 (NL4-3 reference virus; [10]): 444 nM; median RI (Resistance Index) [3]: approximately 0.92
O=c1[nH]cnc2c1ncn2[C@H]1CC[C@@H](CO)O1 [DDI] | – | 1.4 | 2.6 | – | 26.9 | 3.1 | 3.1 | IC50 (NL4-3 reference virus; NL4-3 reference virus, P4 cells, geometric mean of 20 repeated tests, read-out: Geometric mean IC50): 1610 nM
O=C1Nc2ccc(Cl)cc2[C@@](C#CC2CC2)(C(F)(F)F)O1 [Efavirenz, efavirenz] | – | 1.0 | > | high levels of resistance | 74.9 | 1.0 | 1.0 | IC50 (NL4-3 reference virus; [10]): 716 nM
Cc1ccnc2c1NC(=O)c1cccnc1N2C1CC1 [Nevirapine, nevirapine] | 37 | 2.2 | 580.5 | high levels of resistance | > | 1.2 | 1.2 | resistance index ([3]; one virus of the panel with mutation on codon 98 (A for S) of reverse transcriptase): 11.0
C=C(C)[C@@H]1CC[C@]2(C(=O)NCCCCCCCC(=O)N[C@@H](CC(C)C)[C@@H](O)CC(=O)O)CC[C@]3(C)[C@H](CC[C@@H]4[C@@]5(C)CC[C@H](O)C(C)(C)[C@@H]5CC[C@]43C)[C@@H]12 [RPR103611] | – | – | – | – | – | – | – | increase of IC50 index (resistant virus LAI-L91H): more than 100 times
enfuvirtide | – | – | – | – | – | – | – | increase of IC50 index ([7]; NL-DIM by reference to LAI virus (culture adapted)): more than 100 times; increase of IC50 index ([7]; NL-DIM by reference to T5A1 virus (primary plasma virus)): more than 80 times; increase of IC50 index ([8]; NL4.3 by reference to LAI): 12,5 times; increase of IC50 index ([8]; NL4.3 by reference to T5A1 virus): 10 times

Source: patent publication US20040053219A1, “Method for analysing human immunodeficiency virus (HIV) phenotypic characteristics” (priority 2000, published 2004)
